Results reported in US20250177363A1, “SUBSTITUTED IMIDAZOPYRIDINYL COMPOUNDS USEFUL AS INHIBITORS OF TLR9” (Bristol-Myers Squibb Company, priority 2022, published 2025).
pIC50: −log10 of the molar value.

Legend:
Type in all cases: cell-based
human TLR9 = target: T1, human TLR9 (Homo sapiens, UniProt Q9NR96); experiment: TLR9 inhibition reporter assay (HEK-Blue, SEAP); settings: HEK-Blue cells overexpressing human TLR9, ligand ODN2006 200 nM, 22 hour incubation
T1 construct: host or cells: HEK-Blue cells
T1 sequence (Q9NR96 26-1032): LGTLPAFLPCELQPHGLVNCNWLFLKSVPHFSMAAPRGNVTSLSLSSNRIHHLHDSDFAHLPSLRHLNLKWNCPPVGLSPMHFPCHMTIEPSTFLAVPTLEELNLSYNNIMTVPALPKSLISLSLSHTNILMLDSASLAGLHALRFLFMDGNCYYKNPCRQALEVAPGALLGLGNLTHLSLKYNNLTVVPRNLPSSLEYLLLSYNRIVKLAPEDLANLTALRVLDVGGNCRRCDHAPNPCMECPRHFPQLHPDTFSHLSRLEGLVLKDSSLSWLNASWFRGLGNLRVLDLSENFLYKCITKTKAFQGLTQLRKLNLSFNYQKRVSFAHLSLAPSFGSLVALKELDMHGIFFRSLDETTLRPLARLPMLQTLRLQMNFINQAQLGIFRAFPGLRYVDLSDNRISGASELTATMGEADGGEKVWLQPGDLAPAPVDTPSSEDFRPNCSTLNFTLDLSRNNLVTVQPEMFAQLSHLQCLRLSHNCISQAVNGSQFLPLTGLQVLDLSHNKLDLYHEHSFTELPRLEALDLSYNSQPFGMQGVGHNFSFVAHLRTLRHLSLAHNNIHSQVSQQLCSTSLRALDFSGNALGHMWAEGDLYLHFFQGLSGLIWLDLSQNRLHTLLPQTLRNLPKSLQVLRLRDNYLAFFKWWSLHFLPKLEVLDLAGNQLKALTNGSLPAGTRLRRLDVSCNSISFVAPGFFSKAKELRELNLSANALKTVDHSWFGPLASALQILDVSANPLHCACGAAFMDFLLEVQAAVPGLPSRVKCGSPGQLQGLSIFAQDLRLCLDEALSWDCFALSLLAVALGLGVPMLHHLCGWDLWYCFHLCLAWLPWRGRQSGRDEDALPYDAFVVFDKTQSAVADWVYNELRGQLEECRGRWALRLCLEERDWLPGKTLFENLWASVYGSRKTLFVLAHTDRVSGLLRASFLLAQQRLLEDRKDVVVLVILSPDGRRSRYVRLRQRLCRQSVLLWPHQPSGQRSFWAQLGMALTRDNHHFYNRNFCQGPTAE
Summary of the method: (§1)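 HEK-Blue cells expressing human TLR7, TLR8 or TLR9 with NF-κB/AP-1-driven SEAP reporter; compounds 0.85 nM–50 μM, pre-treated 60 min. Stimulation: gardiquimod 2.5 μM (TLR7), R848 14.25 μM (TLR8), ODN2006 200 nM (TLR9); SEAP read after 22 h at 37 °C. Percent inhibition normalized between agonist+DMSO and known-inhibitor wells.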

human TLR7 = target: T2, human TLR7 (Homo sapiens, UniProt Q9NYK1); experiment: TLR7 inhibition reporter assay (HEK-Blue, SEAP); settings: HEK-Blue cells overexpressing human TLR7, ligand gardiquimod 2.5 μM, 22 hour incubation
T2 construct: host or cells: HEK-Blue cells
T2 sequence (Q9NYK1 27-1049): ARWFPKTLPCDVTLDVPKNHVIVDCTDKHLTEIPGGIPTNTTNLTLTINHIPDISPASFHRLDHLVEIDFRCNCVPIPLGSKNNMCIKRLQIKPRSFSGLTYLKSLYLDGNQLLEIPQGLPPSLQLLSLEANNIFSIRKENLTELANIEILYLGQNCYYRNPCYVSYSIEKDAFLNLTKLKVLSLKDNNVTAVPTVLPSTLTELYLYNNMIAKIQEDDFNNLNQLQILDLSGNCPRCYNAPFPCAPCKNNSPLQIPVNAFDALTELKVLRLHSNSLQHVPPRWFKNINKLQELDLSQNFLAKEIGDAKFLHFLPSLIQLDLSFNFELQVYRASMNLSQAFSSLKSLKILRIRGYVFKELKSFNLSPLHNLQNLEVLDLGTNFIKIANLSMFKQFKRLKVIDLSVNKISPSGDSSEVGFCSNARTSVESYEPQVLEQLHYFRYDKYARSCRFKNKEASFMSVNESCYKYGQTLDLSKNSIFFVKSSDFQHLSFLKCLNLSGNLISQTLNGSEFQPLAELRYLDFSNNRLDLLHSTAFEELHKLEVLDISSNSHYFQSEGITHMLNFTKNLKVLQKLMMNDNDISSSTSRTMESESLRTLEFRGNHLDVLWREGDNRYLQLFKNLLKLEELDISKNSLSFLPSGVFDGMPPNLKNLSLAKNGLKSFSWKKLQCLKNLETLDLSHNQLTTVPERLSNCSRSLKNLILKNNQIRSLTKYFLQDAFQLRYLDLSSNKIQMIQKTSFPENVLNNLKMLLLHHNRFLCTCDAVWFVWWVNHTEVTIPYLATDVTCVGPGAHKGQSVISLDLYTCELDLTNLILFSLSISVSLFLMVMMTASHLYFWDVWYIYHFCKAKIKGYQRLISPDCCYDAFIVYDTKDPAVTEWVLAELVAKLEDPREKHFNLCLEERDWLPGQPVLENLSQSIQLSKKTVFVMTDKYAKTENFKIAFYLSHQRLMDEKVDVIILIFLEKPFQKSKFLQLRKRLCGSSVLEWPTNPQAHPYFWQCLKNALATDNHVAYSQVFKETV
Summary of the method: as §1

human TLR8 = target: T3, human TLR8 (Homo sapiens, UniProt Q9NR97); experiment: TLR8 inhibition reporter assay (HEK-Blue, SEAP); settings: HEK-Blue cells overexpressing human TLR8, ligand R848 14.25 μM, 22 hour incubation
T3 construct: host or cells: HEK-Blue cells
T3 sequence (Q9NR97 27-1041): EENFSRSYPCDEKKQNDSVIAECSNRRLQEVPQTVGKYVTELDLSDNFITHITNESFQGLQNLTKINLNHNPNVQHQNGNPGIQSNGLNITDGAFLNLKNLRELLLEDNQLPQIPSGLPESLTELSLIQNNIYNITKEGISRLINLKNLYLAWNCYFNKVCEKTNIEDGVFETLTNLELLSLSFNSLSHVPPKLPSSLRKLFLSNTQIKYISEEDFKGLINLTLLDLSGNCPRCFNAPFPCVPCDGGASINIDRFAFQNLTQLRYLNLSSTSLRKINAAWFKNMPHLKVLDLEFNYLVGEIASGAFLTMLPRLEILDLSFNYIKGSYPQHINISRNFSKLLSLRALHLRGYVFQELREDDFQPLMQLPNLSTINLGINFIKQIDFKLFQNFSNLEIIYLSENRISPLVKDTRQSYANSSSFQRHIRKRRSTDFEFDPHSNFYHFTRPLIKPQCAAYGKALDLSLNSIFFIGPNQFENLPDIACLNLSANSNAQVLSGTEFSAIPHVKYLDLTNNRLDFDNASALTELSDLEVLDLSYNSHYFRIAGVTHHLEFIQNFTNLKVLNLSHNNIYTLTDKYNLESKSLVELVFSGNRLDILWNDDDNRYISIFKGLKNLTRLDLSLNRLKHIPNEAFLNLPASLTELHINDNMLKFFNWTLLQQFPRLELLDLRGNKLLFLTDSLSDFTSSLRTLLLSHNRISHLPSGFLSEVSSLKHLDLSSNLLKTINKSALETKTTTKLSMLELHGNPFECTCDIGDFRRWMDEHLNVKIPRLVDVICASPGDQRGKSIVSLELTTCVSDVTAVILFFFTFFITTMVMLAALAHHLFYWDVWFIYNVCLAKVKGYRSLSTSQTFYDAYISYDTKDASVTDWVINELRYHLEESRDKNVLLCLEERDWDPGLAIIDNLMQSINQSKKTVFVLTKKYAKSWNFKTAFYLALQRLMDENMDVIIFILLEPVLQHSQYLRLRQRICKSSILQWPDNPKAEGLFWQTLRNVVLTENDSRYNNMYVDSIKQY
Summary of the method: as §1

pIC50 (human TLR9)	pIC50 (human TLR7)	pIC50 (human TLR8)	SMILES
5.92	< 4.60	< 4.60	COc1ccc(-c2nc3ncc(C4CCN(C5CCN(C6CC6)CC5)CC4)cc3[nH]2)cc1OC [Example 13, 6-(1′-cyclopropyl-[1,4′-bipiperidin]-4-yl)-2-(3,4-dimethoxyphenyl)-1H-imidazo[4,5-b]pyridine]
5.96	5.60	5.44	COc1ccc(-c2nc3c(C)cc(-c4ccc(N5CCC6(CC5)CN(CC(C)C)C6)cc4)nc3n2C)cc1OC [Example 60, 2-(3,4-dimethoxyphenyl)-5-(4-(2-isobutyl-2,7-diazaspiro[3.5]nonan-7-yl)phenyl)-3,7-dimethyl-3H-imidazo[4,5-b]pyridine]
6.24	< 4.30	< 4.60	CC(C)CN1CC2(C1)CN(c1ccc(-c3ccc4nc(-c5ccc(S(C)(=O)=O)cc5)n(C)c4n3)cc1)C2 [Example 66, 5-(4-(6-isobutyl-2,6-diazaspiro[3.3]heptan-2-yl)phenyl)-3-methyl-2-(4-(methylsulfonyl)phenyl)-3H-imidazo[4,5-b]pyridine]
5.92	4.54	< 4.30	Cc1cc(-c2ccc(N3CCN(C(C)C)CC3)cc2)nc2c1nc(-c1ccc(S(C)(=O)=O)cc1)n2C [Example 7, 5-(4-(4-isopropylpiperazin-1-yl)phenyl)-3,7-dimethyl-2-(4-(methylsulfonyl)phenyl)-3H-imidazo[4,5-b]pyridine]
6.46	5.38	5.57	CC(C)N1CCN(c2ccc(-c3cnc4nc(-c5ccc(S(C)(=O)=O)cc5)n(C)c4c3)cc2)CC1 [Example 49, 6-(4-(4-isopropylpiperazin-1-yl)phenyl)-1-methyl-2-(4-(methylsulfonyl)phenyl)-1H-imidazo[4,5-b]pyridine]
7.16	5.82	4.72	Cc1cc(C2CCN(C3CC4CCC(C3)N4C3CCC3)CC2)nc2c1nc(-c1ccc(S(C)(=O)=O)cc1)n2C (stereo not drawn) [Example 33, 5-(1-(8-cyclobutyl-8-azabicyclo[3.2.1]octan-3-yl)piperidin-4-yl)-3,7-dimethyl-2-(4-(methylsulfonyl)phenyl)-3H-imidazo[4,5-b]pyridine]
7.62	5.36	< 4.30	Cc1cc(C2CCN(C3CCN(CC(C)C)CC3)CC2)nc2c1nc(-c1ccc(S(C)(=O)=O)cc1)n2C [Example 21, 5-(1′-isobutyl-[1,4′-bipiperidin]-4-yl)-3,7-dimethyl-2-(4-(methylsulfonyl)phenyl)-3H-imidazo[4,5-b]pyridine]
6.62	5.27	< 4.30	Cc1cc(C2CCN(C3CCN(C4CCC4)CC3)CC2)nc2c1nc(-c1ccc(S(C)(=O)=O)cc1)n2C [Example 24, 5-(1′-cyclobutyl-[1,4′-bipiperidin]-4-yl)-3,7-dimethyl-2-(4-(methylsulfonyl)phenyl)-3H-imidazo[4,5-b]pyridine]
7.08	4.77	< 4.30	COc1cc(-c2nc3c(C)cc(C4CCN([C@H]5C[C@@H]6CN(C7CCC7)C[C@@H]6C5)CC4)nc3n2C)cn2ncnc12 [Example 42, 5-(1-((3aR,5s,6aS)-2-cyclobutyloctahydrocyclopenta[c]pyrrol-5-yl)piperidin-4-yl)-2-(8-methoxy-[1,2,4]triazolo[1,5-a]pyridin-6-yl)-3,7-dimethyl-3H-imidazo[4,5-b]pyridine]
6.47	5.13	< 4.30	Cc1cc(C2CCN(C3CC4CCC(C3)N4C3CCOCC3)CC2)nc2c1nc(-c1ccc(S(C)(=O)=O)cc1)n2C (single isomer, unassigned) [Example 35, 3,7-dimethyl-2-(4-(methylsulfonyl)phenyl)-5-(1-(8-(tetrahydro-2H-pyran-4-yl)-8-azabicyclo[3.2.1]octan-3-yl)piperidin-4-yl)-3H-imidazo[4,5-b]pyridine]
